According to patent US20230137667A1, “METHODS AND COMPOSITIONS FOR TREATMENT OF CORONAVIRUS INFECTION” (priority 2020, published 2023):
Where two headings read alike, the source gives them in different places.

Key:
[1] = test system: primary human lung microvascular endothelial cells (MVE)
caspases 3/7 [2] = format: cell-based, human
caspases 3/7 [3] = format: cell-based, human; remark: listed apart in the source
[4] = test system: primary human lung microvascular endothelial cells (MVE); remark: listed apart in the source
[5] = test system: primary human lung fibroblasts (FB)
[6] = test system: primary human lung fibroblasts (FB); remark: listed apart in the source
MERS-CoV [7] = format: cell-based
MERS-CoV [8] = format: cell-based; remark: listed apart in the source

| SMILES | cytotoxicity (CellTiter-Glo cell viability) [1] | caspase 3/7 activation above untreated infected cells (caspases 3/7 [2]) | caspase 3/7 activation above untreated infected cells (caspases 3/7 [3]) | cell viability [4] | cell viability [5] | caspase 3/7 activation (caspases 3/7 [2]) | caspase 3/7 activation (caspases 3/7 [3]) | cytotoxicity (CellTiter-Glo cell viability) [6] | MERS-CoV replication (nanoluciferase expression) (MERS-CoV [7]) | MERS-CoV replication (nanoluciferase expression) (MERS-CoV [8]) |
| --- | --- | --- | --- | --- | --- | --- | --- | --- | --- | --- |
| Cc1ccc2cc(-c3c(C)ccc(C(=O)c4c(-c5ccccc5)n(C)n(-c5ccccc5)c4=O)c3N)ccc2n1 [AMG PERK 44] | dose dependent increase in cytotoxicity | No significant dose responsive change in caspase 3/7 activation above untreated infected cells | No significant dose responsive change in caspase 3/7 activation above untreated infected cells |  |  |  |  |  |  |  |
| C[C@H](CCC(=O)O)C[C@H](C)C[C@H](C)C(=O)/C=C(\O)[C@H](C)C[C@H](C)C/C=C/[C@@H](C)[C@@H](O)[C@@H](C)[C@@H](O)C[C@@H]1CC[C@@](C)([C@H]2CC[C@@](C)([C@@H](C)O)O2)O1 [ionomycin] |  |  |  | diminished cell viability | diminished cell viability | did not induce caspase 3/7 activation | did not induce caspase 3/7 activation |  |  |  |
| CN[C@@H]1C[C@H]2O[C@@](C)([C@@H]1OC)n1c3ccccc3c3c4c(c5c6ccccc6n2c5c31)C(=O)NC4 [staurosporine] |  |  |  | diminished cell viability | diminished cell viability | significantly induced caspase 3/7 activation | significantly induced caspase 3/7 activation |  |  |  |
| O=C(COc1ccc(Cl)cc1)NC1CCC(NC(=O)COc2ccc(Cl)cc2)CC1 (stereo not drawn) [trans-ISRIB] | not cytotoxic at any dose tested |  |  |  |  |  |  | not cytotoxic at any dose tested | did not alter MERS-CoV replication in either infected MVE or FB | did not alter MERS-CoV replication in either infected MVE or FB |
